Like-named read-outs stand apart in the source and are kept apart here.
How the values were obtained:
[1] = system: MDA-MB-231 (ER−, PR−, Her2−) human breast cancer cells; test: MTT cell viability assay, MDA-MB-231 cells; format: cell-based; details: for IC50: Homo sapiens
In short: (§1)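 MTT readout at OD570; % viable = treated/vehicle ×100, vehicle (0.5% DMSO) set as 100%. Seeding 2×10^3–1×10^4 cells/well overnight, compound exposure 24 h to 72 h.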

A2058 (BRAF mutation) = test: MTT cell viability assay, A2058 melanoma; format: cell-based, human; details: Homo sapiens, A2058, 24 h
In short: (§2)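 MTT readout at OD570, normalised to 0.5% DMSO vehicle-treated cells set as 100% viable. Compound exposure lasted 24 h to 72 h after overnight seeding of 2×10^3 to 1×10^4 cells/well.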

[2] = system: PC6 lung cancer cell line; test: MTT cell viability assay, PC6; format: cell-based; details: 24 h
Protocol: (§3) Normal or cancer cells (2×10^3 to 1×10^4 cells/well) were seeded in 96-well plate for overnight and treated with different compounds for 24 h to 72 h. Cells growth were determined by MTT-based colorimetric assays according to. Viability of the test cells treated with vehicle (0.5% DMSO) only was defined as 100% viable. Survival of cells after treatment with DETDs was calculated using the following formula: viable cell number (%)=OD570 (treated cell culture)/OD570 (vehicle control)×100.
(§4) Based on toxicity results of DET and DETDs on different breast cancer and melanoma cell lines, we selected DETD-6, -32, -35 and -39, under the consideration of structure activity relationship for evaluating their suppression effect against other cancer types of cell line with indicated tumor origin in Table 5. […] The cells were treated with compounds for 24 h and then subjected to MTT assays.

[3] = system: melanoma cell lines B16-F10, MeWo, A375, A2058, HTB-68; test: MTT cell viability assay, all melanoma cell lines; format: cell-based; details: 24 h, read-out: IC50 values over all types of melanoma cell lines
Protocol: as §3
Several genes are involved in melanoma development and pathology; specifically, mutation in V-raf murine sarcoma viral oncogene homolog B1 (B-RAF) occurs approximately 50-60% and in neuroblastoma RAS viral oncogene homolog (N-RAS) occurs about 30% of malignant melanomas. A spectrum of wild-type or mutated melanoma cell lines including B16-F10, MeWo, A375, A2058, HTB-68, and melanocyte were used to study anti-melanoma cell proliferation activity of parental phytocompound DET and newly synthesized DETDs.

PC3 (Prostate) = test: MTT cell viability assay, PC3; format: cell-based; details: 24 h
Protocol: as §3, §4

[4] = system: M10 normal mammary epithelial cells; test: MTT cell viability assay, M10 normal cells; format: cell-based, human; details: 24 h; for IC50: Homo sapiens, Epithelial cell
In short: as §1

[5] = system: Melanocyte (Normal cells); test: MTT cell viability assay, normal melanocytes; format: cell-based, human; details: Homo sapiens, Melanocyte, 24 h
In short: as §2

A375 (BRAF mutation) = test: MTT cell viability assay, A375 melanoma; format: cell-based, human; details: Homo sapiens, A-375, 24 h, 24 h, MTT; read-out: IC50 on cell viability, A375 (BRAF mutation)
In short: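 A375 cells were seeded at 2×10^3 to 1×10^4 per well overnight and then exposed to compounds for 24 h to 72 h. Viability was measured by MTT absorbance at OD570 relative to 0.5% DMSO vehicle (100%), and IC50 was derived from it. Combination with PLX4032 was scored by combination index.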

HTB-68 (NRAS mutation) = test: MTT cell viability assay, HTB-68 melanoma; format: cell-based, human; details: Homo sapiens, 24 h
In short: as §2

[6] = system: TS/A (ER+, Her2−) murine mammary cancer cells; test: MTT cell viability assay, TS/A cells; format: cell-based; details: Mus musculus
In short: as §1

[7] = system: KATO III stomach cancer cell line; test: MTT cell viability assay, KATO III; format: cell-based; details: Homo sapiens, 24 h
Protocol: as §3, §4

[8] = system: MeWo (No NRAS or BRAF mutation); test: MTT cell viability assay, MeWo melanoma; format: cell-based, human; details: Homo sapiens, MeWo, 24 h
In short: as §2

[9] = system: SK-N-MC neuroepithelioma line; test: MTT cell viability assay, SK-N-MC; format: cell-based; details: Homo sapiens, 24 h
Protocol: as §3, §4

[10] = system: RAW264.7 (normal macrophage); test: MTT cell viability assay, RAW264.7 macrophages; format: cell-based, mouse; details: Mus musculus, RAW264.7, 24 h
In short: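 RAW264.7 macrophages (2×10^5 cells/well) pretreated with compounds 1 h, then incubated 24 h with or without 100 ng/μL LPS. Viability by MTT colorimetric assay run in parallel with Griess nitrite measurement.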

[11] = system: LPS-induced nitric oxide (NO) production in RAW 264.7 cells; test: Nitric oxide production in LPS-stimulated macrophages (Griess); format: cell-based, mouse; details: Mus musculus; LPS-stimulated RAW264.7, nitrite 24 h after LPS
In short: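 RAW 264.7 macrophages (2×10^5 cells/well) were pretreated with compound for 1 h and then stimulated with 100 ng/μL LPS for 24 h. NO was measured as nitrite in the medium by the Griess reaction. Viability was checked in parallel by MTT.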

U937 lymphoma line = test: MTT cell viability assay, U937; format: cell-based; details: Homo sapiens, U-937, 24 h
Protocol: as §3, §4

[12] = system: MCF-7 (ER+, Her2−) human breast cancer cells; test: MTT cell viability assay, MCF-7 cells; format: cell-based
In short: as §1

[13] = system: NES-SA uterus cancer cell line; test: MTT cell viability assay, NES-SA; format: cell-based; details: 24 h
Protocol: as §3, §4

[14] = system: A498 kidney cancer cell line; test: MTT cell viability assay, A498; format: cell-based; details: Homo sapiens, 24 h
Protocol: as §3, §4

B16-F10 (NRAS mutation) = test: MTT cell viability assay, B16-F10 melanoma; format: cell-based; details: Mus musculus, B16-F10, 24 h
In short: as §2

[15] = system: U-87MG brain cancer cell line; test: MTT cell viability assay, U-87MG; format: cell-based; details: Homo sapiens, 24 h
Protocol: as §3, §4

[16] = system: HCT-116 colon cancer cell line; test: MTT cell viability assay, HCT-116; format: cell-based; details: Homo sapiens, 24 h
Protocol: as §3, §4

[17] = system: MDA-MB-231 cell migration; test: Boyden chamber migration assay; format: cell-based, human; details: 24 h
Protocol: (§5) To test the anti-migratory and anti-invasive effect of DET. DETD-35 and PTX. Boyden chambers assay was carried out. The lower well of the chamber (6.5 mm diameter, […]; Costar. Cambridge, Mass., USA) was added 10% fetal bovine serum (FBS) as a chemoattractant and filled with DMEM culture medium containing vehicle (DMSO, 0.05%), DET (2.5 and 4 μM). DETD-35 (1.25 and 2.5 μM), or PTX (2.5 and 4 μM). MDA-MB-231 cells were placed into the upper chamber (5×10^4 cells per insert) with the medium containing 0.1% FBS. After 24 h incubation at 37° C. in a 5% CO2 atmosphere, non-migrating cells were scraped from the upper surface of the membrane using a cotton swab, and the migrated cells remaining in the well were fixed and stained with DAPI solution (4,6-diamidino-2-phenylindole, 1 μg/ml). The migrating cells were counted in three fields at 20× original magnifications by inverted fluorescence microscopy. To test the anti-invasive effect of the compounds, 8-μm filters were pre-coating with Matrigel (30 μg per filter) and incubated at 37° C. for 2 h, then followed the protocol of migration assay descried about.

[18] = system: MDA-MB-231 lung metastasis; test: Lung metastasis of MDA-MB-231 cells in SCID mice; format: in vivo, mouse; details: post-treatment, 5 mg/kg i.p. every three days
Protocol: Female SCID mice (5 weeks old, average body weight 19.59±1.26 g) were assigned to 8 groups: PIX group (5 mg/kg paclitaxel), DETD-35-2 group (2 mg/kg DETD-35), DETD-35-10 group (10 mg/kg DETD-35). PTX-5+DETD-35-2 group (5 mg/kg paclitaxel and 2 mg/kg DETD-35 administration alternatively for eleven doses of paclitaxel (PTX) and ten doses of DETD-35 in total), tumor (vehicle) group (5% DMSO), and sham group (5% DMSO). Pre-DETD-35-10 group was the mice administered 10 mg/kg DETD-35 every two days for three doses before the i.v. injection of 1×10^6 MDA-MB-231 tumor cells at day 0. All other drug or compounds were administered i.p. every three days starting from day 1. At the end of experiment (day 71), the test mice were sacrificed by cervical dislocation. The lung, liver, kidney, and spleen organs were removed and recorded weights and calculated for organ index (% of organ weight/body weight). The number of tumor colonies on lungs of test mice was counted.

MDA-MB-231 cell invasion = test: Boyden chamber (Matrigel) invasion assay; format: cell-based, human; details: 24 h
Protocol: as §5

[19] = MDA-MB-231, 24 h, read-out: IC50 on cell viability, MDA-MB-231 (ER−, PR−, Her2−)
[20] = MDA-MB-231, Table 5, 24 h, read-out: IC50 viability MDA-MB-231 (Breast)
[21] = 24 h, read-out: IC50 on cell viability, TS/A (ER+, Her2−)
[22] = Table 5, 24 h, read-out: IC50 viability TS/A (mouse) (Breast)
[23] = MCF7, 24 h, read-out: IC50 on cell viability, MCF-7 (ER+, Her2−)
[24] = MCF7, Table 5, 24 h, read-out: IC50 viability MCF-7 (Breast)
[25] = 24 h, read-out: IC50 on cell viability, B16-F10 (NRAS mutation)
[26] = Table 5, 24 h, read-out: IC50 viability B16-F10 (mouse) (Skin)
[27] = higher concentrations (DET 4 μM, DETD-35 2.5 μM, PTX 4 μM)
[28] = lower concentrations (DET 2.5 μM, DETD-35 1.25 μM, PTX 2.5 μM)

Row | SMILES | IC50 [1, 19] | IC50 [1, 20] | IC50 (A2058 (BRAF mutation)) | IC50 [2] | IC50 (PC3 (Prostate)) | IC50 [4] | IC50 [5] | IC50 (A375 (BRAF mutation)) | IC50 (HTB-68 (NRAS mutation)) | IC50 [6, 21] | IC50 [6, 22] | IC50 [7] | IC50 [8] | IC50 [9] | IC50 [10] | IC50 [11] | IC50 (U937 lymphoma line) | IC50 [12, 23] | IC50 [12, 24] | IC50 [13] | other results
1 | C=C1C(=O)O[C@H]2CC3=C[C@@H](C/C(C)=C/[C@@H](OC(=O)/C=C/c4ccccc4)[C@H]12)OC3=O [DETD-6] | 4200 nM | 4000 nM | 3900 nM | 170 nM | 4500 nM | 4900 nM | > 10000 nM | 3300 nM | 5700 nM | 1600 nM | 1800 nM | 420 nM | 9900 nM | 320 nM | > 10000 nM | 2500 nM | 180 nM | 1600 nM | 4800 nM | 420 nM | IC50 [3]: 1600 to 9900 nM; IC50 on cell viability, M10 (normal) [4]: some toxicity; IC50 [14]: 1110 nM; IC50 (B16-F10 (NRAS mutation); [25]): 3900 nM; IC50 (B16-F10 (NRAS mutation); [26]): 3900 nM; IC50 [15]: 350 nM; IC50 [16]: 110 nM
2 | C=C1C(=O)O[C@H]2CC3=C[C@@H](C/C(C)=C/[C@@H](OC(=O)c4ccc(OC)cc4)[C@H]12)OC3=O [DETD-32] | 3900 nM | 3900 nM | > 10000 nM | 470 nM | 6200 nM | > 7500 nM | > 10000 nM | > 10000 nM | > 10000 nM | 1900 nM | 1900 nM | 820 nM | > 10000 nM | 510 nM | > 10000 nM | 2600 nM | 390 nM | 4300 nM | 4300 nM | 500 nM | IC50 [14]: 1480 nM; IC50 (B16-F10 (NRAS mutation); [25]): 4200 nM; IC50 (B16-F10 (NRAS mutation); [26]): 4200 nM; IC50 [15]: 420 nM; IC50 [16]: 360 nM
3 | CC(=O)O[C@H]1C(=O)[C@@]2(C)[C@H]([C@H](OC(=O)c3ccccc3)[C@]3(O)C[C@H](OC(=O)[C@H](O)[C@@H](NC(=O)c4ccccc4)c4ccccc4)C(C)=C1C3(C)C)[C@]1(OC(C)=O)CO[C@@H]1C[C@@H]2O [PTX, paclitaxel] |  |  |  |  |  |  |  |  |  |  |  |  |  |  |  |  |  |  |  |  | IC60 on MDA-MB-231 cells ([1]; 24 h): 23.8 nM; reduction of cell migration vs vehicle control [17, 27]: 88%; suppression of cell migration vs vehicle control [17, 28]: 87%; reduction of number of tumor foci in lungs vs tumor control [18]: 62%; inhibition of cell invasion (MDA-MB-231 cell invasion; [27]): 90%; inhibition of cell invasion (MDA-MB-231 cell invasion; [28]): 85%
